The results in this text go back to PMC4687129, “Molecular characterization of a cathepsin F-like protease in Trichinella spiralis” (Parasites & Vectors, 2015).

The experiment deals with T1, TsCF1 (cathepsin F-like protease).
T1 construct: gene Tsp_02382
The experiment is described as follows: fluorescence endpoint assay, Z-Phe-Arg-AMC hydrolysis at pH […] min preincubation with inhibitor. Type of experiment: biochemical, Trichinella spiralis.

In general, IC50 refers to the concentration that gives 50% inhibition. Lower therefore signals higher potency. As for `CC(C)C[C@H](NC(=O)[C@H]1O[C@@H]1C(=O)O)C(=O)NCCCCN=C(N)N` [E-64], it took 136 ± 16.9 nM to reach half-maximal inhibition (IC50).
